Experimental data taken from patent publication US20260272924A1, “ISOINDOLINE DERIVATIVE, BENZOINDOLE DERIVATIVE AND USE THEREOF” (SHANGHAI HELIOSON PHARMACEUTICAL CO., LTD., priority 2023, published 2026).
Like-named read-outs stand apart in the source and are kept apart here.

Assays:
[1] = system: NCI-H929 multiple myeloma cells; experiment: Cell Titer-GLO (CTG) assay for proliferation of NCI-H929 cells; format: cell-based; details: Homo sapiens, 72 hours
How it was run: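 NCI-H929 cells, 5000/well, treated next day with compound from 0.00512 to 400 nM (5-fold steps, duplicates) for 72 h at 37° C. Viability by CellTiter-Glo luminescence, normalised to 0.1% DMSO and medium blank; IC50 and maximal inhibition from nonlinear dose-response regression.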

CRBN = target: T1, CRBN (Homo sapiens, UniProt Q96SW2); experiment: CRBN binding assay (HTRF competition)
T1 construct: purchased Cisbio 64BDCRBNPEG
From the text: Bonding activity between CRBN and compounds were detected by the HTRF competition assay using a CRBN binding kit (Cisbio, 64BDCRBNPEG). First, a reagent in the kit was equilibrated to room temperature and diluted to 1 fold with double-distilled water, and both the reagent and samples were uniformly mixed by thorough vortexing for later use. An europium-labeled specific GST antibody and an XL665-labeled thalidomide-red reagent (Cisbio, Cat No. 64BDCRBNPEG) were mixed in equal volumes in advance and then added into a 384-well white microplate at 10 μL per well. […] After uniform mixing, contents in the 384-well plate were sealed and incubated in the dark at room temperature for 3 hours.

IKZF3 = target: T2, IKZF3 (Homo sapiens, UniProt Q96SW2+Q9UKT9); experiment: Protein degradation assay (In-Cell Western), IKZF3; format: cell-based; details: NCI-H929 cells, 24 hours
T2 construct: endogenous in cells; host or cells: NCI-H929
Experimental: (§1) NCI-H929 cells were inoculated into a 96-well plate at 100,000 cells per well and cultured overnight. Compounds at concentrations of 1600 nM, 400 nM, 100 nM, 25 nM, 6.25 nM, 1.56 nM, 0.39 nM, and 0.1 nM were dosed with duplicate wells, and the cells were incubated in an incubator at 37° C. for 24 hours. After the incubation, the supernatant was removed by centrifugation, and 150 μL of 4% paraformaldehyde was added. The cells were incubated at room temperature for 20 minutes, then, 200 μL of a washing solution (0.1% TritonX-100, Beyotime; ST1722) was added and incubated at room temperature on a shaker. After repeating the washing four times, 150 μL of a Licor INTERCEPT blocking solution (Lico, Cat No. 927-70001) was added, and the cells were incubated on a shaker at room temperature for 1.5 hours. Antibodies IKZF1 (Cell Signaling; Cat No. 14859S), IKZF3 (Cell Signaling; Cat No. 15103S), GSPT1 (Proteintech, Cat No. 10763-1-AP), CK1a (Thermo; 7117067), and SALL4 (Abcam, ab22675) were diluted with an antibody dilution solution (Intercept Blocking Buffer, LI-COR, 211114) at 1:100 and 50 μL of each diluted primary antibody was added into the 96-well plate. The cells were incubated overnight on a shaker at 4° C. After the primary antibodies were removed and repeated washing was performed with PBST for 4 times, 50 μL of a diluted secondary antibody (Licor, Cat No. 926-68070) was added, and IRDye 800CW and IRDye 680CW were added at 0.5 μL simultaneously. The secondary antibody was sucked away, PBST was added, repeated washing was performed on a shaker at room temperature for 4 times, and a signal intensity was detected using an infrared laser imaging system (Lico, Odyssey-CLx).

IKZF1 = target: T3, IKZF1 (Homo sapiens, UniProt Q13422+Q96SW2); experiment: Protein degradation assay (In-Cell Western), IKZF1; format: cell-based; details: NCI-H929 cells, 24 hours
T3 construct: NCI-H929 cells were inoculated into a 96-well plate at 100,000 cells per well and cultured overnight; endogenous in cells; host or cells: NCI-H929
Experimental: as §1

[2] = patients, literature; cited from earlier work
[3] = clinical phase I trial, combined with dexamethasone, RRMM patients; cited from earlier work
[4] = GST-labeled CRBN WT protein, thalidomide-red competition, 3 hours, read-out: HTRF CRBN IC50

Row | Structure (SMILES) | IC50 [1] [pM] | IC50 (CRBN; [4]) [pM] | DC50 (IKZF3) [pM] | Dmax (IKZF3) [%] | DC50 (IKZF1) [pM] | Dmax (IKZF1) [%] | incidence rate of G3/G4 neutropenia [2] | objective response rate (ORR) [3] [%] | IC50 (CRBN) [pM]
1 | Cc1ncn(-c2cccc(N3CCN(Cc4ccc(Cc5ccc6c7c(cccc57)C(=O)N6C5CCC(=O)NC5=O)cc4)CC3)n2)n1 (stereo not shown) [Example 23, 3-(6-(4-((4-(6-(3-methyl-1H-1,2,4-triazol-1-yl)pyridin-2-yl)piperazin-1-yl)methyl)benzyl)-2-oxobenzo[cd]indol-1(2H)-yl)piperidin-2,6-dione] | 10 | 19000 | 36 | 77.1 | 77 | 65.8 | – | – | –
2 | Cc1ncn(-c2cccc(N3CCN(Cc4ccc(Cc5ccc6c7c(cccc57)C(=O)N6[C@H]5CCC(=O)NC5=O)cc4)CC3)n2)n1 [Example 37, (S)-3-(6-(4-((4-(6-(3-methyl-1H-1,2,4-triazol-1-yl)pyridin-2-yl)piperazin-1-yl)methyl)benzyl)-2-oxobenzo[cd]indol-1(2H)-yl)piperidin-2,6-dione] | 10 | 8000 | – | – | – | – | – | – | –
3 | Cc1nc(N2CCN(Cc3ccc(Cc4ccc5c6c(cccc46)C(=O)N5[C@@H]4CCC(=O)NC4=O)cc3)CC2)cc(-n2cnc(C(F)(F)F)c2)n1 [Example 31, (R)-3-(6-(4-((4-(2-methyl-6-(4-(trifluoromethyl)-1H-imidazol-1-yl)pyrimidin-4-yl)piperazin-1-yl)methyl)benzyl)-2-oxobenzo[cd]indol-1(2H)-yl)piperidin-2,6-dione] | 10 | – | 160 | 75 | 340 | 77 | – | – | –
4 | Nc1cccc2c1CN(C1CCC(=O)NC1=O)C2=O (stereo not shown) [lenalidomide] | – | – | – | – | – | – | up to 35% | – | –
5 | Cc1nc(N2CCN(Cc3ccc(Cc4ccc5c6c(cccc46)C(=O)N5[C@H]4CCC(=O)NC4=O)cc3)CC2)cc(-n2cnc(C(F)(F)F)c2)n1 [Example 30, (S)-3-(6-(4-((4-(2-methyl-6-(4-(trifluoromethyl)-1H-imidazol-1-yl)pyrimidin-4-yl)piperazin-1-yl)methyl)benzyl)-2-oxobenzo[cd]indol-1(2H)-yl)piperidin-2,6-dione] | 10 | 27000 | 93 | 73.2 | 370 | 74.1 | – | – | –
6 | Nc1cccc2c1C(=O)N(C1CCC(=O)NC1=O)C2=O (stereo not shown) [pomalidomide] | – | – | – | – | – | – | approximately 50% | – | –
7 | O=C1CCC(N2C(=O)c3cccc4c(Cc5ccc(CN6CCN(C(=O)c7ccnc(-n8ccnc8)n7)CC6)cc5)ccc2c34)C(=O)N1 (stereo not shown) [Example 5, 3-(6-(4-((4-(2-(1H-imidazol-1-yl)pyrimidin-4-carbonyl)piperazin-1-yl)methyl)benzyl)-2-oxobenzo[cd]indol-1(2H)-yl)piperidin-2,6-dione] | 60 | – | 120 | 73.8 | 230 | 68.4 | – | – | –
8 | Cc1ncc(-c2nc(N3CCN(Cc4ccc(Cc5ccc6c7c(cccc57)C(=O)N6C5CCC(=O)NC5=O)cc4)CC3)cc(C(F)(F)F)n2)s1 (stereo not shown) [Example 21, 3-(6-(4-((4-(2-(2-methylthiazol-5-yl)-6-(trifluoromethyl)pyrimidin-4-yl)piperazin-1-yl)methyl)benzyl)-2-oxobenzo[cd]indol-1(2H)-yl)piperidin-2,6-dione] | 200 | 34000 | 220 | 74.1 | 8860 | 57.1 | – | – | –
9 | O=C1CCC(N2C(=O)c3cccc4c(Cc5ccc(CN6CCN(c7ccnc(-n8cnc(C(F)(F)F)c8)n7)CC6)cc5)ccc2c34)C(=O)N1 (stereo not shown) [Example 25, 3-(2-oxo-6-(4-((4-(2-(4-(trifluoromethyl)-1H-imidazol-1-yl)pyrimidin-4-yl)piperazin-1-yl)methyl)benzyl)benzo[cd]indol-1(2H)-yl)piperidin-2,6-dione] | 40 | 38000 | 75 | 76.2 | 980 | 60 | – | – | –
10 | O=C1CCC(N2C(=O)c3cccc4c(Cc5ccc(CN6CCN(C(=O)c7cccc(-n8ccnc8)n7)CC6)cc5)ccc2c34)C(=O)N1 (stereo not shown) [Example 4, 3-(6-(4-((4-(6-(1H-imidazol-1-yl)pyridin-2-carbonyl)piperazin-1-yl)methyl)benzyl)-2-oxobenzo[cd]indol-1(2H)-yl)piperidin-2,6-dione] | 30 | – | 190 | 70.3 | 380 | 73.6 | – | – | –
11 | N#Cc1ccc(N2CCN(Cc3ccc(COc4cccc5c4CN([C@H]4CCC(=O)NC4=O)C5=O)cc3)CC2)c(F)c1 [CC-92480, reference compound] | – | – | – | – | – | – | – | 54.4 | 108000
12 | O=C1CCC(N2C(=O)c3cccc4c(Cc5ccc(CN6CCN(c7ccnc(-n8ccnc8)n7)CC6)cc5)ccc2c34)C(=O)N1 (stereo not shown) [Example 3, 3-(6-(4-((4-(2-(1H-imidazol-1-yl)pyrimidin-4-yl)piperazin-1-yl)methyl)benzyl)-2-oxobenzo[cd]indol-1(2H)-yl)piperidin-2,6-dione] | 3 | – | 50 | 76.6 | 81 | 73.6 | – | – | –
13 | O=C1CC[C@H](N2Cc3c(OCc4ccc(CN5CCN(c6ccnc(-n7ccnc7)n6)CC5)cc4)cccc3C2=O)C(=O)N1 [Example 1, (S)-3-(4-((4-((4-(2-(1H-imidazol-1-yl)pyrimidin-4-yl)piperazin-1-yl)methyl)benzyl)oxy)-1-oxoisoindolin-2-yl)piperidin-2,6-dione] | 30 | – | 120 | 71.4 | 310 | 75.8 | – | – | –
14 | Cc1nnc(-c2cccc(N3CCN(Cc4ccc(Cc5ccc6c7c(cccc57)C(=O)N6C5CCC(=O)NC5=O)cc4)CC3)n2)s1 (stereo not shown) [Example 22, 3-(6-(4-((4-(6-(5-methyl-1,3,4-thiadiazol-2-yl)pyridin-2-yl)piperazin-1-vA)methyl)benzyl)-2-oxobenzo[cd]indol-1(2H)-yl)piperidin-2,6-dione] | 20 | 20000 | 56 | 76.4 | 100 | 65.3 | – | – | –
15 | Cc1ncn(-c2ncc(F)c(N3CCN(Cc4ccc(Cc5ccc6c7c(cccc57)C(=O)N6C5CCC(=O)NC5=O)cc4)CC3)n2)n1 (stereo not shown) [Example 68, 3-(6-(4-((4-(5-fluoro-2-(3-methyl-1H-1,2,4-triazol-1-yl)pyrimidin-4-yl)piperazin-1-yl)methyl)benzyl)-2-oxobenzo[cd]indol-1(2H)-yl)piperidin-2,6-dione] | 20 | – | – | – | – | – | – | – | –
16 | Cc1nc(N2CCN(Cc3ccc(COc4cccc5c4CN([C@H]4CCC(=O)NC4=O)C5=O)cc3)CC2)cc(-n2cnc(C)n2)n1 [Example 71, (S)-3-(4-((4-((4-(2-methyl-6-(3-methyl-1H-1,2,4-triazol-1-yl)pyrimidin-4-yl)piperazin-1-yl)methyl)benzyl)oxy)-1-oxoisoindolin-2-yl)piperidin-2,6-dione] | 100 | – | – | – | – | – | – | – | –
17 | Cc1ncn(-c2cccc(N3CCN(C4CN(Cc5ccc(Cc6ccc7c8c(cccc68)C(=O)N7C6CCC(=O)NC6=O)cc5)C4)CC3)n2)n1 (stereo not shown) [Example 53, 3-(6-(4-((3-(4-(6-(3-methyl-1H-1,2,4-triazol-1-yl)pyridin-2-yl)piperazin-1-yl)azetidin-1-yl)methyl)benzyl)-2-oxobenzo[cd]indol-1(2H)-yl)piperidin-2,6-dione] | 3 | – | – | – | – | – | – | – | –
